In US12180187B2, “1-phenyl-5-azinylpyrazolyl-3-oxyalkyl acids and their use for controlling unwanted plant growth” (BAYER AKTIENGESELLSCHAFT, priority 2019, dated 2024):

Assays:
POAAN [1] = test: Pre-emergence action against POAAN, 1280 g/ha; type: in vivo, Poa annua; conditions: visual scoring after about 3 weeks vs untreated controls, 100% = plants have died, 0% = like control plants
Procedure, shortened: (§1)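 Each pot was doubly sown in sandy loam and covered, then its soil surface was treated with compound suspension or emulsion containing 0.5% additive at 600 L/ha water. Plants grew in a greenhouse; effect was rated visually as percentages versus controls after about 3 weeks.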

AMARE [2] = test: Pre-emergence action at 320 g/ha against AMARE; type: in vivo, Amaranthus retroflexus; conditions: visual scoring after about 3 weeks vs untreated controls
Procedure, shortened: (§2)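 Percent herbicidal activity was assessed by eye roughly three weeks post-application, comparing with untreated plants. Treatment consisted of applying formulated compound in water plus 0.5% additive to covering soil at 600 l/ha before emergence.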

POLCO [3] = test: Pre-emergence action at 320 g/ha against POLCO; type: in vivo, Fallopia convolvulus (Polygonum convolvulus); conditions: visual scoring after about 3 weeks vs untreated controls
Procedure, shortened: as §2

ALOMY = test: Pre-emergence action at 320 g/ha against ALOMY; type: in vivo, Alopecurus myosuroides; conditions: scored visually after about 3 weeks vs untreated controls (100% = plants have died)
Procedure, shortened: as §2

STEME = test: Pre-emergence action against STEME, 1280 g/ha; type: in vivo, Stellaria media; conditions: scored visually after about 3 weeks vs untreated controls (100% = plants have died)
Procedure, shortened: as §1

MATIN [4] = test: Pre-emergence action against MATIN, 1280 g/ha; type: in vivo, Tripleurospermum inodorum (Matricaria inodora); conditions: scored visually after about 3 weeks vs untreated controls (100% = plants have died)
Procedure, shortened: as §1

AMARE [5] = test: Pre-emergence action against AMARE, 1280 g/ha; type: in vivo, Amaranthus retroflexus; conditions: scored visually after about 3 weeks vs untreated controls (100% = plants have died)
Procedure, shortened: as §1

ECHCG = test: Pre-emergence action against ECHCG, 1280 g/ha; type: in vivo, Echinochloa crus-galli; conditions: visual scoring after about 3 weeks vs untreated controls, 100% = plants have died, 0% = like control plants
Procedure, shortened: as §1

SETVI [6] = test: Pre-emergence action at 320 g/ha against SETVI; type: in vivo, Setaria viridis; conditions: visual scoring after about 3 weeks vs untreated controls
Procedure, shortened: as §2

DIGSA = test: Pre-emergence action at 320 g/ha against DIGSA; type: in vivo, Digitaria sanguinalis; conditions: visual scoring after about 3 weeks vs untreated controls
Procedure, shortened: as §2

POLCO [7] = test: Post-emergence action at 320 g/ha against POLCO; type: in vivo, Fallopia convolvulus (Polygonum convolvulus); conditions: visual rating about 3 weeks after treatment vs untreated controls
Procedure, shortened: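 Sow in sandy loam → greenhouse growth 2–3 wk → spray at one-leaf stage (WP/EC, aqueous, +0.5% additive, 600 l/ha) → hold ~3 wk under optimum conditions → visual rating, 0–100% relative to untreated.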

MATIN [8] = test: Pre-emergence action at 320 g/ha against MATIN; type: in vivo, Tripleurospermum inodorum (Matricaria inodora); conditions: visual scoring after about 3 weeks vs untreated controls
Procedure, shortened: as §2

SETVI [9] = test: Pre-emergence action against SETVI, 1280 g/ha; type: in vivo, Setaria viridis; conditions: visual scoring after about 3 weeks vs untreated controls, 100% = plants have died, 0% = like control plants
Procedure, shortened: as §1

POAAN [10] = test: Post-emergence action against POAAN, 1.28 kg/ha; type: in vivo, Poa annua; conditions: dosage 1280 g/ha, visual rating about 3 weeks after treatment vs untreated controls
Procedure, shortened: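 Weeds grown in sandy loam in a greenhouse were sprayed at the one-leaf stage, 2–3 weeks after sowing, with WP or EC formulations in water containing 0.5% additive at 600 L/ha. About 3 weeks later, damage was scored visually versus untreated controls (0% = like control, 100% = dead).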

[11] = Tripleurospermum inodorum, 504 h

Structure (SMILES) | Pre-emergence action against POAAN (POAAN [1]) | Pre-emergence action against AMARE in % (AMARE [2]) | Pre-emergence action against POLCO in % (POLCO [3]) | Pre-emergence action at 320 g/ha against ALOMY in % (ALOMY) | Pre-emergence action against STEME (STEME) | Pre-emergence action against MATIN (MATIN [4]) | Pre-emergence action against AMARE (AMARE [5]) | Pre-emergence action against ECHCG (ECHCG) | Pre-emergence action against SETVI in % (SETVI [6]) | Pre-emergence action against DIGSA in % (DIGSA) | Post-emergence action against POLCO in % (POLCO [7]) | Pre-emergence action against MATIN in % (MATIN [8]) | Pre-emergence action against SETVI (SETVI [9]) | Post-emergence action against POAAN (POAAN [10]) | further results
CCOC(=O)COc1nn(-c2ccc(F)cc2F)c(-c2ccc(F)nc2)c1Cl [VII-016] | 100% | 100% | 90% | 100% | 100% | 90% | 100% | 100% | 100% | 100% | 90% | 80% | 100% | 100% | 
COC(=O)COc1nn(-c2ccccc2)c(-c2ccc(F)nc2)c1Br [VII-018] | 100% | 100% | 100% | 100% | 100% | 90% | 100% | 100% | 100% | 100% | 90% | 90% | 100% | 100% | 
CCOC(=O)C(C)Oc1nn(-c2ccccc2F)c(-c2ccc(F)nc2)c1Br (stereo not shown) [VII-019] | 100% | 100% | 100% | 100% | 100% | 90% | 100% | 100% | 100% | 100% | 90% | 100% | 100% | 100% | 
COC(=O)C(C)Oc1nn(-c2ccccc2)c(-c2ccc(F)nc2)c1Cl (stereo not shown) [VII-023, Methyl 2-{[4-chloro-5-(6-fluoropyridin-3-yl)-1-phenyl-1H-pyrazol-3-yl]oxy}propanoate] |  |  |  |  |  |  |  |  |  |  |  |  |  |  | pest or weed control at 1280 g/ha (POAAN [1]; Poa annua, 504 h): 100%; pest or weed control at 320 g/ha (AMARE [2]; Amaranthus retroflexus, 504 h): 100%; pest or weed control at 320 g/ha (POLCO [3]; Fallopia convolvulus, 504 h): 100%; pest or weed control at 320 g/ha (ALOMY; Alopecurus myosuroides, 504 h): 100%; pest or weed control at 1280 g/ha (STEME; Stellaria media, 504 h): 100%; pest or weed control at 1280 g/ha (MATIN [4]; [11]): 90%; pest or weed control at 1280 g/ha (AMARE [5]; Amaranthus retroflexus, 504 h): 100%; pest or weed control at 1280 g/ha (ECHCG; Echinochloa crus-galli, 504 h): 100%; pest or weed control at 320 g/ha (SETVI [6]; Setaria viridis, 504 h): 100%; pest or weed control at 320 g/ha (DIGSA; Digitaria sanguinalis, 504 h): 100%; pest or weed control at 320 g/ha (POLCO [7]; Fallopia convolvulus, 504 h): 90%; pest or weed control at 320 g/ha (MATIN [8]; [11]): 90%; pest or weed control at 1280 g/ha (SETVI [9]; Setaria viridis, 504 h): 100%; pest or weed control at 1280 g/ha (POAAN [10]; Poa annua, 504 h): 100%
O=C(O)COc1nn(-c2ccccc2F)c(-c2cncc(F)c2)c1Br [VII-025] | 100% | 100% | 100% | 100% | 100% | 100% | 100% | 100% | 100% | 100% | 90% | 100% | 100% | 100% | 
COC(=O)C(C)Oc1nn(-c2ccccc2)c(-c2ccc(F)nc2)c1Br (stereo not shown) [VII-026] | 100% | 100% | 100% | 100% | 90% | 90% | 100% | 90% | 80% | 100% | 90% | 90% | 100% | 100% | 
CCC(Oc1nn(-c2ccccc2F)c(-c2ccc(F)nc2)c1Br)C(=O)OC (stereo not shown) [VII-029] | 100% | 100% | 100% | 90% | 100% | 100% | 100% | 100% | 90% | 100% | 80% | 90% | 100% | 100% | 
COC(=O)COc1nn(-c2ccccc2F)c(-c2ccc(F)nc2)c1C(F)(F)F [VII-031] | 100% | 100% | 100% | 100% | 100% | 100% | 100% | 90% | 100% | 100% | 90% | 100% | 100% | 100% | 
